Where two headings read alike, the source gives them in different places. Non-standard residues stand in square brackets, D forms with d. Residues, ends and D or L forms follow the SMILES beside them. Dolaproine = CO[C@@H]([C@@H]1CCCN1)[C@@H](C)C(=O)O; Dil = CC[C@H](C)[C@H](NC)[C@@H](CC(=O)O)OC; NMeV = CN[C@H](C(=O)O)C(C)C
What was measured:
[1] = system: Her2-positive breast cancer cell line SK-BR-3; assay: In vitro cytotoxicity assay (CellTiter Glo) on SK-BR-3; type: cell-based
Protocol: SK-BR-3 cell line (ATCC) was cultured and assayed in DMEM (Cellgro) supplemented with 10% (vol/vol) FBS, 100 IU/mL penicillin, and 100 μg/mL streptomycin. Ramos cell line (ATCC) was cultured and assayed in RPMI-1640 media mixed with the same supplements as described above. For cytotoxicity assay, SK-BR-3 cancer cells were plated in flat-bottom 96 well plates at 1000 cells, 90 μL fresh cell media/well, and were incubated overnight at 37° C., 5% CO2. The MMAF compound and protein samples were filtered (0.22 μm, EMD Millipore), serially diluted in PBS buffer as 10× stock solutions, and added in triplicate to cancer cells (10 μL/well). To prevent evaporation, the edges of the plates were filled with 200 μL of bank media. […] The luminescence signals were detected on a Synergy H1 plate reader (BioTek). The viability of the cells treated with PBS buffer was used as a control, the signal of which was normalized as 100%. Ramos cancer cells were plated in flat-bottom 96 well plates at 10000 cells/well, and were directly treated with protein samples and MMAF control compound. The rest of the assay procedure was the same as described above.

[2] = system: CD19-positive Burkitt's lymphoma cell line Ramos; assay: In vitro cytotoxicity assay (CellTiter Glo) on Ramos; type: cell-based; conditions: 72 hour incubation; mixtures αGCN4-Fab-MMAF:GCN4 fusion at molar ratio 2:1
Protocol: SK-BR-3 cell line (ATCC) was cultured and assayed in DMEM (Cellgro) supplemented with 10% (vol/vol) FBS, 100 IU/mL penicillin, and 100 μg/mL streptomycin. Ramos cell line (ATCC) was cultured and assayed in RPMI-1640 media mixed with the same supplements as described above. For cytotoxicity assay, SK-BR-3 cancer cells were plated in flat-bottom 96 well plates at 1000 cells, 90 μL fresh cell media/well, and were incubated overnight at 37° C., 5% CO2. The MMAF compound and protein samples were filtered (0.22 μm, EMD Millipore), serially diluted in PBS buffer as 10× stock solutions, and added in triplicate to cancer cells (10 μL/well). To prevent evaporation, the edges of the plates were filled with 200 μL of bank media. The plates were then incubated at 37° C., 5% CO2 for 72 hours, after which the ATP content of each well was measured by CellTiter Glo (Promega). The luminescence signals were detected on a Synergy H1 plate reader (BioTek). The viability of the cells treated with PBS buffer was used as a control, the signal of which was normalized as 100%. Ramos cancer cells were plated in flat-bottom 96 well plates at 10000 cells/well, and were directly treated with protein samples and MMAF control compound. The rest of the assay procedure was the same as described above.

CC[C@H](C)[C@@H]([C@@H](CC(=O)N1CCC[C@H]1[C@H](OC)[C@@H](C)C(=O)N[C@@H](Cc1ccccc1)C(=O)O)OC)N(C)C(=O)[C@@H](NC(=O)[C@@H](NC)C(C)C)C(C)C [MMAF, monomethyl auristatin F] (H-[NMeV]V[Dil][Dolaproine]F-OH)
EC50 ([1]; 72 hour incubation, mixtures αGCN4-Fab-MMAF:GCN4 fusion at molar ratio 2:1, read-out: EC50 (nM) on SK-BR-3): 50 ± 39 nM | EC50 ([1]; range over Ramos and SK-BR-3, 72 hour incubation, read-out: EC50s, medium cytotoxicity of positive control): 50 to 89 nM | EC50 [2]: 89 ± 37 nM

Source: patent US11492413B2, “Switchable antibody conjugate” (Temple University—Of The Commonwealth System of Higher …, priority 2017, dated 2022)
